Test results as given in PMC7031697, “Mechanism of Activation of AMPK by Cordycepin” (Cell Chemical Biology, 2020).
Where two headings read alike, the source gives them in different places.

Key:
AMPK [1] = assay: AMPK activity in anti-AMPK-α immunoprecipitates from HepG2 cells treated with cordycepin; type: cell-based, human
Method: (§1) HepG2 cells ([…]) were cultured in Minimum Essential Medium (MEM) supplemented with 10% (v/v) FBS, 1% (v/v) non-essential amino acids and 1% (v/v) penicillin/streptomycin. Transient transfection of DNAs encoding FLAG-tagged AMPK-γ2 or an R531G mutant of AMPK-γ2 were carried out 36-48 hr prior to experiments using Fugene 6 according to manufacturers’ instructions. U2OS cells ([…]) were cultured in Dulbecco’s Modified Eagle’s Medium (DMEM) supplemented with 10% (v/v) FBS and 1% (v/v) penicillin/streptomycin.
(§2) Endogenous AMPK in crude cell lysates was first immunoprecipitated using an equal mixture of anti-α1 and –α2 antibodies (150 μg protein) by incubation at 4°C for 2 hr on a roller mixer. After extensive washing, the immunoprecipitates were assayed for AMPK activity (50 μg per assay, total assay volume 50 μl) using the AMARA peptide (200 μM) as substrate in the presence of 200 μM AMP, 5 mM MgCl2 and 200 μM [γ-^32P]ATP ([Fyffe et al., 2018]).

AMPK [2] = assay: Phosphorylation of AMPK, ACC and Raptor in HepG2 cells (western blotting); type: cell-based, human; conditions: cordycepin at 100 μM and above, 1 h
Method: SDS-PAGE for AMPK and Raptor was performed using precast Bis-Tris 4–12% gradient polyacrylamide gels in the MOPS buffer system (Invitrogen). SDS-PAGE for ACC was performed using precast Tris-Acetate 3–8% gradient polyacrylamide gels in the Tris-Acetate buffer system (Invitrogen). Proteins were transferred to nitrocellulose membranes using the iBlot2 system (Invitrogen). Membranes were blocked for 1 hr in Li-Cor Odyssey blocking buffer. The membranes were probed with appropriate antibody (0.1–1 μg/ml) in Li-Cor Odyssey blocking buffer, except where the blotting enhancement system was used (Thermo Scientific; as per manufacturers’ instructions). Detection was performed using secondary antibody (1 μg/ml) coupled to IR 680 or IR 800 dye, or IR-streptavidin 800 dye, and the membranes were scanned using the Li-Cor Odyssey IR imager. Protein concentrations were determined by Coomassie Blue binding with bovine serum albumin as standard ([Bradford, 1976]).

HepG2 cells [3] = assay: MTT assay for cell proliferation; type: cell-based, human
Method: After treatment for the specified time, the effect of cordycepin on cell proliferation was determined using the MTT assay kit (Abcam, ab211091) as per manufacturers’ instructions.

HepG2 cells [4] = assay: Clonal survival assay, HepG2; type: cell-based, human; conditions: for EC50: Homo sapiens, read-out: half-maximal effect on cell survival
Method: Cells were seeded into 6-well plates at equal density and treated in triplicate at 40% to 60% confluence with vehicle or cordycepin for the indicated time. Cells were trypsinized in 1 ml trypsin:EDTA for 5 min and diluted in 1 ml of complete medium. Cells in control wells were counted using a hemocytometer and 1000 cells from vehicle and cordycepin-treated wells were seeded in triplicate into 10 cm dishes containing 10 ml of medium. The dishes were incubated at 37°C for 10-15 days. […] The dishes were washed with water and the number of colonies counted manually.

[5] = target: T1, AMPK complexes containing WT γ2 (Homo sapiens, UniProt Q9UGJ0); assay: AMPK activity in anti-FLAG immunoprecipitates, HepG2 cells with FLAG-tagged WT AMPK-γ2; type: cell-based; conditions: 1 h, 300 μM cordycepin, 10 mM phenformin or 300 μM A-769662
T1 construct: expressed in transfected cells; host or cells: HepG2 (transient, Fugene 6)
Method: as §1
(§3) HepG2 cells were transiently transfected with DNAs encoding FLAG-tagged wild type AMPK-γ2 or the R531G mutant, using Fugene 6 according to the manufacturers’ instructions. After transfection for 48 hr, cells were treated with various agents as described, and cell lysates prepared ([Hawley et al., 2018]). FLAG-tagged AMPK was then immunoprecipitated from 150 μg total protein by incubation at 4°C for 2 hr on a roller mixer with 9 μl of EZview Red anti-FLAG M2 affinity gel. After extensive washing, the immunoprecipitates were assayed for AMPK activity (50 μg per assay in a total volume of 50 μl) using the AMARA peptide (200 μM) as substrate in the presence of 200 μM AMP, 5 mM MgCl2 and 200 μM γ-^32P-ATP as described previously ([Fyffe et al., 2018]).

[6] = target: T2, AMPK complexes containing the R531G mutant (Homo sapiens, UniProt Q9UGJ0, R531G); assay: AMPK activity in anti-FLAG immunoprecipitates, HepG2 cells with FLAG-tagged AMPK-γ2 R531G mutant; type: cell-based; conditions: 1 h, 300 μM cordycepin, 10 mM phenformin or 300 μM A-769662
T2 construct: expressed in transfected cells; host or cells: HepG2 (transient, Fugene 6)
Method: as §1, §3

AMPK [7] = assay: AMPK activation in HepG2 cells in medium without serum but with 0.02% BSA; type: cell-based, human; conditions: medium with 0.02% BSA vs 10% serum
Method: as §2

[8] = set-up: method as in Wei et al., 2009; conditions: mice, single oral dose of 63 mg/kg; ref Wei et al., 2009; cited from earlier work
AMPK [9] = test system: AMPK; set-up: method as in Guo et al., 2010; conditions: HepG2 cells, medium without serum but with 0.02% (w/v) BSA; ref Guo et al., 2010; cited from earlier work

T1 sequence (Q9UGJ0 whole entry, one chain of several): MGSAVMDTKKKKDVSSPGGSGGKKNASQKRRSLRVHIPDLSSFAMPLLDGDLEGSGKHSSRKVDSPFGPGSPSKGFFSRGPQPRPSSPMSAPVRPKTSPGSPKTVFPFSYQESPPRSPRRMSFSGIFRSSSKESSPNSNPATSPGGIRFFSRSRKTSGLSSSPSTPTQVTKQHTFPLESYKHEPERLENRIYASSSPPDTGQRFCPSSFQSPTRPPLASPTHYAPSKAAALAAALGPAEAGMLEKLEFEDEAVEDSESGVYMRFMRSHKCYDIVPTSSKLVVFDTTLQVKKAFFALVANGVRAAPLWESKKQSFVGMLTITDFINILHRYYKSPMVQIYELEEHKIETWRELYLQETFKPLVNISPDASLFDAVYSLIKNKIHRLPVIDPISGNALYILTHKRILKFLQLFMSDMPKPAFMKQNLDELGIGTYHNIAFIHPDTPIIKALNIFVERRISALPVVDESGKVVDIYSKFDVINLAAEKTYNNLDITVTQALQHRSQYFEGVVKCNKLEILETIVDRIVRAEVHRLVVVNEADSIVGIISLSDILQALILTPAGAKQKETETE
T2 sequence (Q9UGJ0 whole entry R531G, one chain of several): as the sequence (Q9UGJ0 whole entry, one chain of several) above, with R531G counted along it

In the case of `Nc1ncnc2c1ncn2[C@@H]1O[C@H](CO)C[C@H]1O` [cordycepin, 3′-deoxyadenosine], the AMPK activation (AMPK [1]; 30 μM cordycepin, 1 h, medium with serum) is reported as “No activation was evident”, the “time of return of AMPK phosphorylation and activation to baseline” value (AMPK [1]; 100 μM cordycepin, time course) is reported as no more than 4 h and the “peak increase in phosphorylation and activation of AMPK” value (AMPK [1]; 100 μM cordycepin, time course, at 1 h) is reported as “≈ 2 fold”. For the same molecule, the EC50 (AMPK [1]; cordycepin 1 h, medium with serum, read-out: half-maximal effect (EC50) on AMPK kinase activity) was 310 ± 60 µM, the “kinase activity of AMPK, maximum increase” value (AMPK [1]; cordycepin 1 h, medium with serum, ±SEM) was 7 ± 1 fold and the “phosphorylation of Thr172 on AMPK, ACC1 Ser80 and Raptor Ser792” value (AMPK [2]) was “increased”. The “effect on cell proliferation” value (HepG2 cells [3]; 30 μM, after 72 h) was “only very small effects”, the “decrease in cell proliferation” value (HepG2 cells [3]; 100 μM, after 72 h) was 30% and the “effect on cell proliferation” value (HepG2 cells [3]; 300 μM) was “completely prevented cell proliferation”. The “effect on cell proliferation” value (HepG2 cells [3]; 1 mM) was “completely prevented cell proliferation”, the “effect on clonal survival” value (HepG2 cells [4]; 100 μM) was “only partial effects” and the “effect on clonal survival” value (HepG2 cells [4]; 300 μM) was “almost complete death”. For the same molecule, the “effect on clonal survival” value (HepG2 cells [4]; 1 mM) was “almost complete death”, the EC50 (HepG2 cells [4]; 2 h treatment) was 130 µM and the EC50 (HepG2 cells [4]; 8 h treatment) was 70 µM. For the same molecule, the EC50 (HepG2 cells [4]; 24 h treatment) was 35 µM, the “activation of AMPK complexes containing WT γ2” value [5] was “activated” and the “activation of AMPK complexes containing the R531G mutant” value [6] was “not activated”. For the same molecule, the “potency of AMPK activation compared with medium containing serum” value (AMPK [7]) was “much more potent”, the peak plasma concentration [8] was 10 µM and the plasma half-life [8] was 2.1 h. The “time to peak plasma concentration” value [8] was 1.5 h and the “concentration at which AMPK was activated” value (AMPK [9]) was no less than 1 µM.
